# Read-outs that look alike come from different tables or passages of the source.
# What was measured:
# [1] = tested on: purified PLA2, from the diamond back cotton mouth snake (A. piscivorus piscivorus); test: in vivo PLA2 murine paw edema assay; design: species or system A. piscivorus piscivorus PLA2 in CD-1 mice; conditions: p.o.; at +10 min
# Method: The ability of the compounds of the invention to inhibit paw edema induced by the exogenous administration of PLA2 is measured in the in vivo PLA2 murine paw edema assay.
# Non-fasted, male CD-1 mice (8 weeks old; 31-36 grams) are placed in plastic boxes in groups of six. The right hind paw volume is measured using mercury plethysmography (zero time). Compounds are dosed orally (0.5 mL of 0.5% Tween-80) 1 or 3 hours prior to PLA2 injection or intravenously (0.2 mL in 0.3% dimethylsulfoxide/saline) 3 minutes prior to PLA2 injection. A solution of purified PLA2, from the diamond back cotton mouth snake (A. piscivorus piscivorus) is prepared in saline at a concentration of 6 μg/mL. Fifty (50) μL (0.3 μg) of this PLA2 solution is injected subcutaneously into the right hind paw with a plastic 1 mL plastic syringe (27 gauge, 1" needle). Paw volume of the injected paw is measured again at 10 minutes, 30 minutes and 60 minutes after PLA2 injection. Animals are euthanized with CO2 at the completion of the study.
# The paw edema is calculated by subtracting the zero time volume from the volume recorded at each time period. Mean paw edema for each treatment group is then calculated and expressed as (μL±S.E.). Drug effects are expressed as a percent change from control (vehicle) values. Statistical significance is determined by a one-way analysis of variance with LSD comparison to control (p<0.05). ED50 's are determined using […].
# [2] = tested on: cyclooxygenase (PGE2 or TxB2 synthesis); test: inhibition of synthesis of cyclooxygenase products PGE2 and TxB2 by rat polymorphonuclear leukocytes; type: cell-based, rat (female Wistar); conditions: Leukocyte, rat PMN; for inhibition at 10 µM: + with * denotes potentiation
# Method: (§1) Rat polymorphonuclear leukocytes (PMNs) are obtained from female Wistar rats (150-200 g) which receive an injection of 6% glycogen (10 ml i.p.). Rats are sacrificed 18-24 hours post injection by CO2 asphyxiation and the elicited cells are harvested by peritoneal lavage using physiological saline (0.9% NaCl). The exudate is centrifuged at 400 xg for 10 minutes. The supernatant fluid is discarded and the cell pellet is resuspended to a concentration of 2.0×10^7 cells/mL in HBSS containing Ca^++ and Mg^++ and 10 μM L-cysteine.
# (§2) To 1 mL aliquots of cell suspension, test drugs or vehicle are added, then preincubated at 37° C. for 10 minutes. A23187 (1 μM), [^3 H]-AA (3.0 μCi/mL) and unlabeled AA (1 μM) are then added and the samples are further incubated for 10 minutes. The reaction is terminated by centrifugation and pelleting cells. Supernatants are then analyzed by HPLC analysis on a 15 cm×4.6 mm ID supelcosil LC-18 (Supelco)(3M) column, using a two solvent system at a flow rate of 1.4 mL total flow as follows:
# In this assay, the procedure of Example 58 is carried out as described. However, in order to determine cyclooxygenase activity, the samples are co-chromatographed with authentic reference [^3 H]-TxB2 or [^3 H]-PGE2.
# The results are calculated as in Example 58 and presented below: […]
# [3] = tested on: purified PLA2, from the diamond back cotton mouth snake (A. piscivorus piscivorus); test: in vivo PLA2 murine paw edema assay; design: species or system A. piscivorus piscivorus PLA2 in CD-1 mice
# human platelet PLA2 = biological target: T1, human platelet PLA2 (Homo sapiens, UniProt P14555); test: in vitro isolated phospholipase A2 assay, human platelet PLA2; type: biochemical; conditions: at 10 μM; + values given without explanation; read-out: % Inhibition HP (human platelet)
# T1 construct: platelet acid extract PLA2; from tissue; host or cells: human platelets, semipurified acid extract
# T1 sequence (P14555 21-144): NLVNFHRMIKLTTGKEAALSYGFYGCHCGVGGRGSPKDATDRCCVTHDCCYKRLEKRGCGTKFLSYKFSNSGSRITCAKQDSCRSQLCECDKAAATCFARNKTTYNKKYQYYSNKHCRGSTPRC
# Method: (§3) The compounds of the invention are tested in an in vitro isolated phospholipase A2 assay to determine the ability of the test compounds to inhibit the release of arachidonic acid from an arachidonic acid-containing substrate by the action of phospholipase A2 enzyme from human and non-human sources.
# (§4) Into a 15 mL polypropylene tube are added the following:
# (§5) ^3 H-AA E. coli substrate^1
# (§6) Tris-HCl (0.5 M) pH 7.5^3
# (§7) PLA2 25 Volume yielding 12%
# (§8) 100 hydrolysis in 10 min.
# (§9) *pre-incubate at room temperature 30 min prior to substrate addition.
# (§10) ^6 Two human PLA2 enzymes are used: a) Semipurified human
# (§11) platelet acid extract PLA2 (in 10 mM sodium acetate buffer, pH 4.5).
# (§12) Remove protein precipitate by centrifugation at about 2200 rpm for 10
# (§13) minutes. b) Purified human synovial fluid.
# (§14) Incubate the 100 μL reaction mixture for 10 minutes at 37° C. in a shaking water bath. The reaction is terminated by the addition of 2 mL tetrahydrofuran, followed by vortexing. NH2 columns (100 μg/mL--Analytichem International) are conditioned with 0.5 mL tetrahydrofuran followed by 0.5 mL tetrahydrofuran/water (2 mL:0.1 mL, v/v).
# (§15) The sample is loaded onto the columns and slowly drawn through them. The hydrolyzed arachidonic acid retained in the columns is eluted therefrom with 1 mL tetrahydrofuran/glacial acetic acid (2%). The arachidonic acid is transferred to scintillation vials and quantitated by β-counting analysis. A "total counts" sample is prepared by pipetting 25 μL ^3 H-arachidonate E. coli directly into a scintillation vial to which is added 1 mL tetrahydrofuran. 10 mL aquasol (scintillation cocktail) is added to all samples.
# [4] = biological target: T2, human synovial fluid PLA2 (Homo sapiens, UniProt P14555); test: in vitro isolated phospholipase A2 assay, human synovial fluid PLA2; type: biochemical; conditions: for inhibition at 10 µM: + values given without explanation, read-out: % Inhibition HSF (human synovial fluid)
# T2 construct: Purified human synovial fluid; from tissue; host or cells: human synovial fluid
# T2 sequence (P14555 21-144): T1 sequence (P14555 21-144)
# Method: as §3, §4, §5, §6, §7, §8, §9, §10, §11, §12, §13, §14, §15
# [5] = tested on: lipoxygenase (LTB4 or 5HETE synthesis); test: inhibition of LTB4 and 5-HETE synthesis by rat glycogen-elicited polymorphonuclear leukocytes; type: cell-based, rat (female Wistar); conditions: Leukocyte, rat PMN; for inhibition at 10 µM: + with * denotes potentiation
# From the text: This is especially true with respect to 5,12-diHETE, which is also denoted as LTB4 [see Ford-Hitchinson, J. Roy. Soc. Med., 74, 831 (1981)]. Compounds which inhibit the PLA2 -mediated release of arachidonic acid thereby effectively prevent the oxidation of arachidonic acid to the various leukotriene products via the lipoxygenase cascade. Accordingly, the specificity of action of PLA2 inhibitors can be determined by the activity of test compounds in this assay, which measures the ability of compounds to inhibit the synthesis of LTB4 and 5-HETE by rat glycogen-elicited polymorphonuclear leukocytes (PMN) in the presence of exogenous substrate.
# as §1, §2
# Injections: 140 μL of each supernatant is injected directly onto column and ^3 H arachidonic acid metabolites are monitored using an on-line radioactivity detector (Ramona, IN/US, Fairfield, N.J.).
# Co-chromatography with standard [^3 H] leukotriene B4 (LTB4) in medium of stimulated PMN exposed to drug is compared to that found in medium of stimulated cells exposed to no drug, generating percent inhibition.
# Results are expressed as percent inhibition at a given compound dose or as an IC50 value.
# [6] = tested on: platelet-activating factor (PAF) biosynthesis in human polymorphonuclear neutrophils (PMN); test: platelet-activating factor biosynthesis in human polymorphonuclear neutrophils (in vitro phospholipase A2 assay); type: cell-based; conditions: Homo sapiens, Polymorphonuclear neutrophil; in this assay (PAF or LTB4 readout not stated)
# Method: The compounds of the invention are tested in an in vitro phospholipase A2 assay to determine the ability of the compounds to inhibit the biosynthesis of platelet-activating factor and LTB4 in purified human neutrophils.
# A leukocyte enriched blood sample obtained from a healthy donor is procured by leukophoresis using a Haemonetics model 30+ blood processor (Biological Specialties, Inc., Lansdale, Penn.). The top "platelet-rich" layer is removed after a low speed spin (35 xg, 15 min, 25° C.) of the sample. The remaining cell suspension is centrifuged (400 xg, 10 min, 25° C.) to sediment the remaining cells. The supernatant is discarded and the cell pellet resuspended in 120 ml HBSS (without Ca^++ /Mg^++). The cell suspension is subjected to ficoll-hypaque sedimentation (Histopaque 1077, 400 xg, 30 min, 25° C.). Contaminating erythrocytes are lysed by hypotonic shock (1 min). The cells are then washed once with 40 ml of HBSS and resuspended with HBSS (without Ca^++ /Mg^++) to a concentration of 2.5×10^7 cells/ml for further use. Greater than 95% purity is obtained, as assessed by microscopic examination.
# One ml of human PMN (2.5×10^7 cells/ml) is incubated with vehicle or drugs (10 μl) for 10 minutes at 30° C. After preincubation, an equal volume of HBSS (1 ml) containing 2.4 mM CaCl2, 6 μM calcium ionophore A23187 and 50 μCi [^3 H]-acetate is then incubated at 30° C. for 15 minutes. An aliquot (100 μl) of the reaction mixture is taken out and mixed with 900 μl of 15% ethanol. LTB4 is extracted by using solid phase extraction on reverse phase C18 columns to remove excess [^3 H]-acetate and PAD. The C18 column is prewashed once with 2 ml of ethanol and water. The sample aliquot is acidified with 0.1N HCl to pH 3 before applying to the column. The column is then washed with 2 ml of water followed by 2 ml of 15% ethanol and 2 ml of petroleum ether to remove excess labeled acetate. The sample is eluted with 2 ml of ethyl acetate. The collected samples are dried with nitrogen and resuspended in 0.5 ml RIA buffer. The quantity of LTB4 in the sample is obtained from RIA determination. For PAF determination, the reaction is terminated by addition of 5 ml chloroform:methanol:acetic acid (2:1:0.04, v/v/v). [^3 H]-PAF is obtained by Bligh and Dyer extraction. The chloroform phase is removed and dried under nitrogen. The residue is redissolved in 75 μl of chloroform:methanol (80:20, v/v). [^3 H]-PAF is resolved from other phospholipids by TLC on RPC18 plates with a solvent system of chloroform:methanol:water (2:3:1, v/v/v) and is quantitated using a Berthold automated TLC linear analyzer.
# Data presented are the mean +/- s.d. of the values relative to control A23187 stimulated cells for each experiment assayed in triplicate. Percent inhibition when used is calculated as:
# % Inhibition=100-[(x.div.Control)×100].
# Dose response analysis is performed by non-linear regression analysis for curve fitting and IC50 determination.
structure (smiles),measurement,setting,value
"COc1cccc2c1cc([N+](=O)[O-])c1c(C(=O)O)cc3c(c12)OCO3 [Aristolochic Acid, reference compound]",ED50 at +10 min.,[1],Not Active
"CCCCCC/C=C\CCCCCCCC(=O)C1=C(O)COC1=O [Example 26, 4-Hydroxy-3-((Z)-1-oxo-9-hexadecenyl)-2(5H)-furanone]",inhibition at 10 µM,[2]; read-out: % Inhibition PGE2,6%
same,inhibition at 10 µM,[2]; read-out: % Inhibition TxB2,1%
same,% Change in Edema 30 min,[3]; 1 mg/kg i.p.,-62%
same,% Change in Edema 60 min,[3]; 1 mg/kg i.p.,-38%
same,% Change in Edema 30 min,[3]; 10 mg/kg i.p.,-67%
same,% Change in Edema 60 min,[3]; 10 mg/kg i.p.,-43%
same,inhibition at 10 µM,human platelet PLA2,24.4%
same,inhibition at 10 µM,[4],1.7%
same,inhibition at 10 µM,[5]; read-out: % Inhibition 5-HETE,85%
same,inhibition at 10 µM,[5]; read-out: % Inhibition LTB4,82%
"COc1ccc2cc([C@H](C)C(=O)O)ccc2c1 [Naproxen, reference compound]",ED50 at +10 min.,[1],18 mg/kg
"CC(=O)O[C@H]1C[C@@H]2[C@@]3(C)CCCC(C)(C)[C@@H]3CC[C@@]2(C)[C@@H]2CC=C(C=O)[C@H](C=O)[C@@]12C [scalaradial, reference compound]",IC50,[6],1 µM
"CCC/C=C\CCCCCCCCC(=O)C1=C(O)COC1=O [Example 23, 4-Hydroxy-3-((Z)-1-oxo-10-tetradecenyl)-2(5H)-furanone]",inhibition at 10 µM,[2]; read-out: % Inhibition PGE2,1%
same,inhibition at 10 µM,[2]; read-out: % Inhibition TxB2,8%
same,% Change in Edema 30 min,[3]; 1 mg/kg i.p.,-41%
same,% Change in Edema 60 min,[3]; 1 mg/kg i.p.,-20%
same,% Change in Edema 30 min,[3]; 10 mg/kg i.p.,-48%
same,% Change in Edema 60 min,[3]; 10 mg/kg i.p.,-28%
same,inhibition at 10 µM,human platelet PLA2,52.7%
same,inhibition at 10 µM,[4],44%
same,inhibition at 10 µM,[5]; read-out: % Inhibition 5-HETE,93%
same,inhibition at 10 µM,[5]; read-out: % Inhibition LTB4,83%
"C[C@@H]1C[C@H]2[C@@H]3CCC4=CC(=O)C=C[C@]4(C)[C@@]3(F)[C@@H](O)C[C@]2(C)[C@@]1(O)C(=O)CO [Dexamethasone, reference compound]",ED50 at +10 min.,"[3]; p.o. 3 hr, at +10 min",10 mg/kg
"CN1CCC(=C2c3ccccc3C=Cc3ccccc32)CC1 [Cyproheptadine, reference compound]",ED50 at +10 min.,[1],3.1 mg/kg
"O=C(/C=C/c1ccccc1)C1=C(O)COC1=O [Example 8, (E)-4-Hydroxy-3-(3-(phenyl)-1-oxo-2-propenyl)-2(5H)-furanone]",inhibition at 10 µM,[2]; read-out: % Inhibition TxB2,1%
same,inhibition at 10 µM,human platelet PLA2,3%
same,IC50,"[4]; Table IV, read-out: IC50 HSF (human synovial fluid)",10.5 µM
same,inhibition at 10 µM,[4],77%
same,inhibition at 10 µM,[5]; read-out: % Inhibition LTB4,10%
"CCc1cccc2c3c([nH]c12)C(CC)(CC(=O)O)OCC3 (centres unmarked) [etodolac, reference compound]",inhibition at 0.5 µM,[2]; at 0.5 μM,100%
same,inhibition at 0.5 µM,[5]; at 0.5 μM,21%

# — patent publication US5242945A, “Tetronic and thiotetronic acid derivatives as phospholipase A2 inhibitors” (American Home Products Corporation, priority 1991, dated 1993)
